# Results as given in PMC6817585, “Simultaneous Determination of Five Alkaloids by HPLC-MS/MS Combined With Micro-SPE in Rat Plasma and Its Application to Pharmacokinetics After Oral Administration of Lotus Leaf Extract” (Frontiers in Pharmacology, 2019).
# Read-outs that look alike come from different tables or passages of the source.
# Experiments:
# [1] = Pharmacokinetics of five alkaloids in rat plasma after oral administration of lotus leaf extract; format: in vivo, Male Sprague-Dawley rats
# Protocol: All analyses were performed on Agilent 1200 HPLC system (Agilent Corporation, USA) and API 3200 triple-quadrupole mass spectrometer (Concord, Ontario, Canada) in multiple-reaction monitoring (MRM) with positive ionization mode. Acetonitrile (A) and formic acid aqueous solution (B) (0.1%, v/v) is used to separate the analytes on Eclipse plus C18 column (4.6 mm × 100 mm, 1.8 µm) with a guard C18 column (2.1 mm × 12.5 mm, 5 µm). The gradient of elution is as follows: 5%–60% A at 0 to 4 min, 60%–70% A at 4 to 5 min, 70%–93% A at 5 to 7 min, 93%–94% A at 7 to 11 min, 94%–5% A at 11 to 12 min, and 5%–5% A at 12 to 17 min. The flow rate and injection volume are 0.3 ml·min^-1 and 5 µl, respectively. The main parameters of ion source including the ion spray voltage, the curtain gas, and temperature are set at 5000 V, 35 psi, and 450°C, respectively.
# The real plasma sample (100 µl) and IS solution (10 µl) were vortex-mixed for 1 min. The sample was carried out with the SPE column (Cleanert PEP-2, 40–60 µm, 60 Å, 10 mg/1 ml; Phenomenex, Torrance, CA, USA). First, SPE columns were activated by 50% methanol in water (1 ml) and 0.1% formic acid in water (1 ml) and were used to activate the SPE column in sequence. Second, columns were washed with 200 µl methanol (20%, v/v) and eluted with acetonitrile (400 µl) after the plasma samples were added. Finally, the eluent was centrifuged for 10 min with 14,000 rpm. Then final solutions were injected into the HPLC-MS/MS and analyzed.
# The pharmacokinetic study was conducted in accordance with the Guidelines for the Care and Use of Laboratory Animals by the US National Institutes of Health and approved by the Animal Ethics Committee of Tianjin University of Traditional Chinese Medicine (permit number: TCM-LAEC2019022, Tianjin, China),. Male Sprague-Dawley rats (240–260 g) were fed in the animal laboratory of the Tianjin University of Traditional Chinese Medicine under the standard conditions. These rats were allowed free to get standard laboratory food and water and conformed for 1 week until 12 h before experiment. These rats (n = 10) were fasted, although they were still given water for 12 h, before the oral administration of lotus leaf extract. […] The plasma samples were centrifuged in 10 min at 7000 rpm and kept at −20°C until analyzed.
# All of the pharmacokinetic parameters were calculated by one compartment model with DAS 1.0 software (Medical College of Wannan). The maximum drug concentration (Cmax) and the time to reach Cmax (Tmax) were acquired from observed concentration–time profile for oral administration in plasma. All data were shown as mean ± SD.
# [2] = Stability of analytes in rat plasma QC samples (auto-sampler, freeze-thaw, short-time, long-term); format: in vitro ADME
# Protocol: (§1) The stabilities (including auto-sampler, freeze–thaw cycles, and short-time and long-term stability) of all analytes were obtained by testing QC samples of four concentrations. Moreover, the stabilities for stock and working solution were assessed with mixed standard substance (100 ng·ml^−1) and the QC sample solutions of four concentration levels, respectively. These solutions were achieved by diluting stock solutions kept at 4°C for 2 weeks. For IS, the evaluated procedures of two stabilities were same as the five alkaloids.
# [3] = Stability of stock and working solutions; format: physicochemical; details: for Remain, working solution: n = 6
# Protocol: as §1
# [4] = male, Sprague-Dawley, rat, in vivo, po, 2.4 g/kg
# [5] = concentration LLOQ, from stock kept at 4°C for 2 weeks
# [6] = male, Sprague-Dawley, rat, in vivo, po, 2.4 g/kg, rat plasma, oral lotus leaf extract 2.4 g·kg^−1, n = 10, mean ± SD, read-out: MRT(0–tn)
# [7] = male, Sprague-Dawley, rat, in vivo, po, 2.4 g/kg, rat plasma, oral lotus leaf extract 2.4 g·kg^−1, n = 10, mean ± SD, read-out: MRT(0–∞)
# [8] = male, Sprague-Dawley, rat, in vivo, po, 2.4 g/kg, rat plasma, oral lotus leaf extract 2.4 g·kg^−1, n = 10, mean ± SD, read-out: Tmax
# [9] = male, Sprague-Dawley, rat, in vivo, po, 2.4 g/kg, rat plasma, oral lotus leaf extract 2.4 g·kg^−1, n = 10, one compartment model, mean ± SD, read-out: T1/2 (converted)
# [10] = rat, oral lotus leaf extract 2.4 g·kg^−1
# [11] = rat plasma QC, autosampler 24 h, LLOQ, n = 6
# [12] = rat plasma QC, freeze thaw cycles, LLOQ, n = 6
# [13] = rat plasma QC, room temperature 24 h, LLOQ, n = 6
# [14] = rat plasma QC, −80°C 1 month, LLOQ, n = 6
# [15] = rat plasma, oral lotus leaf extract 2.4 g·kg^−1, n = 10, mean ± SD
smiles,measurement,setting,value
"COc1cc2c(cc1OC)C(Cc1ccc(O)cc1)N(C)CC2 (stereo not drawn) [Armepavine, armepavine]",AUC,[1]; [4],28.6 ± 16.5 ng·h/mL
same,AUC(0-inf),[1]; [4],53.8 ± 34.6 ng·h/mL
same,Cmax,[1]; [4],8.78 ± 7.78 ng/mL
same,MRT,[1]; [4],7.23 ± 1.93 h
same,MRT inf,[1]; [4],31.9 ± 25.9 h
same,Tmax,[1]; [4],0.3 ± 0.11 h
same,half-life,[1]; [4],5.22 ± 5.09 h
same,Absorption after orally administrating the lotus leaf extract (in words),"[1]; rat, in vivo, po",fast absorption
same,"Remain, freeze thaw cycles","[2]; rat, plasma",103%
same,"Remain, freeze thaw cycles","[2]; rat, plasma, 1 ng/ml",107%
same,"Remain, freeze thaw cycles","[2]; rat, plasma, 20 ng/ml",111%
same,"Remain, freeze thaw cycles","[2]; rat, plasma, 100 ng/ml",85.2%
same,"Remain, −80°C for 1 month","[2]; rat, plasma, 1 month",109%
same,"Remain, −80°C for 1 month","[2]; rat, plasma, 1 month, 1 ng/ml",107%
same,"Remain, −80°C for 1 month","[2]; rat, plasma, 1 month, 20 ng/ml",113%
same,"Remain, −80°C for 1 month","[2]; rat, plasma, 1 month, 100 ng/ml",107%
same,"Remain, autosampler for 24 h","[2]; rat, plasma, 24 h",87.6%
same,"Remain, room temperature for 24 h","[2]; rat, plasma, 24 h",91.5%
same,"Remain, autosampler for 24 h","[2]; rat, plasma, 24 h, 1 ng/ml",90.8%
same,"Remain, room temperature for 24 h","[2]; rat, plasma, 24 h, 1 ng/ml",104%
same,"Remain, autosampler for 24 h","[2]; rat, plasma, 24 h, 20 ng/ml",114%
same,"Remain, room temperature for 24 h","[2]; rat, plasma, 24 h, 20 ng/ml",118%
same,"Remain, autosampler for 24 h","[2]; rat, plasma, 24 h, 100 ng/ml",87.4%
same,"Remain, room temperature for 24 h","[2]; rat, plasma, 24 h, 100 ng/ml",110%
same,"Remain, working solution",[3]; 1 ng/ml,98.8%
same,"Remain, working solution",[3]; 20 ng/ml,95.8%
same,"Remain, working solution",[3]; 100 ng/ml,101%
same,"Remain, working solution",[3]; [5],96.3%
"COc1cc2c(cc1OC)-c1cc3ccc(OC)c(OC)c3c[n+]1CC2 [IS, palmatine chloride, reference compound]","Remain, stock solution",[3]; stock solution kept at 4°C for 2 weeks,114%
"O=C1c2ccccc2-c2c3c(cc4ccnc1c24)OCO3 [Liriodenine, liriodenine]",AUC,"[1]; male, Sprague-Dawley, rat, in vivo, po, 2.4 g/kg, rat plasma, oral lotus leaf extract 2.4 g·kg^−1, n = 10, mean ± SD, read-out: AUC(0–tn)",415 ± 200 ng·h/mL
same,AUC(0-inf),"[1]; male, Sprague-Dawley, rat, in vivo, po, 2.4 g/kg, rat plasma, oral lotus leaf extract 2.4 g·kg^−1, n = 10, mean ± SD, read-out: AUC(0–∞)",429 ± 199 ng·h/mL
same,Cmax,"[1]; male, Sprague-Dawley, rat, in vivo, po, 2.4 g/kg, rat plasma, oral lotus leaf extract 2.4 g·kg^−1, n = 10, mean ± SD, read-out: Cmax",54.7 ± 31.8 ng/mL
same,MRT,[1]; [6],7.11 ± 1.21 h
same,MRT inf,[1]; [7],8.17 ± 1.86 h
same,Tmax,[1]; [8],5.7 ± 2.83 h
same,half-life,[1]; [9],3.77 ± 1.15 h
same,Absorption after orally administrating the lotus leaf extract (in words),[1]; [10],slow absorption
same,"Remain, autosampler for 24 h","[2]; rat plasma QC, autosampler 24 h, 1 ng/ml, n = 6",86.0%
same,"Remain, autosampler for 24 h","[2]; rat plasma QC, autosampler 24 h, 40 ng/ml, n = 6",105%
same,"Remain, autosampler for 24 h","[2]; rat plasma QC, autosampler 24 h, 200 ng/ml, n = 6",96.8%
same,"Remain, autosampler for 24 h",[2]; [11],95.7%
same,"Remain, freeze thaw cycles","[2]; rat plasma QC, freeze thaw cycles, 1 ng/ml, n = 6",86.9%
same,"Remain, freeze thaw cycles","[2]; rat plasma QC, freeze thaw cycles, 40 ng/ml, n = 6",92.7%
same,"Remain, freeze thaw cycles","[2]; rat plasma QC, freeze thaw cycles, 200 ng/ml, n = 6",90.5%
same,"Remain, freeze thaw cycles",[2]; [12],91.7%
same,"Remain, room temperature for 24 h","[2]; rat plasma QC, room temperature 24 h, 1 ng/ml, n = 6",87.9%
same,"Remain, room temperature for 24 h","[2]; rat plasma QC, room temperature 24 h, 40 ng/ml, n = 6",96.9%
same,"Remain, room temperature for 24 h","[2]; rat plasma QC, room temperature 24 h, 200 ng/ml, n = 6",102%
same,"Remain, room temperature for 24 h",[2]; [13],92.9%
same,"Remain, −80°C for 1 month","[2]; rat plasma QC, −80°C 1 month, 1 ng/ml, n = 6",107%
same,"Remain, −80°C for 1 month","[2]; rat plasma QC, −80°C 1 month, 40 ng/ml, n = 6",105%
same,"Remain, −80°C for 1 month","[2]; rat plasma QC, −80°C 1 month, 200 ng/ml, n = 6",104%
same,"Remain, −80°C for 1 month",[2]; [14],98.9%
same,"Remain, working solution",[3]; 1 ng/ml,96.9%
same,"Remain, working solution",[3]; 40 ng/ml,91.7%
same,"Remain, working solution",[3]; 200 ng/ml,112%
same,"Remain, working solution",[3]; [5],105%
"COc1cc2c3c(c1OC)-c1ccccc1C[C@H]3N(C)CC2 [Nunciferine, nunciferine]",MRT,[1]; [6],5.49 ± 0.96 h
same,MRT inf,[1]; [7],6.14 ± 1.47 h
same,Tmax,[1]; [8],3.5 ± 1.84 h
same,half-life,[1]; [9],6.18 ± 3.1 h
same,AUCs(0–24 h),"[1]; rat plasma, oral lotus leaf extract 2.4 g·kg^−1",2070 ± 919 ng·h/mL
same,AUC(0–tn),[1]; [15],2069 ± 919 ng·h/mL
same,AUC(0–∞),[1]; [15],2142 ± 961 ng·h/mL
same,Cmax,[1]; [15],317.58 ± 175.05 ng/mL
same,Cmax,"[1]; rat plasma, oral lotus leaf extract 2.4 g·kg^−1, n = 10, mean ± SD, listed as nunciferine",317.6 ± 175.1 ng/mL
same,Plasma exposure (in words),[1]; [10],abundant plasma exposure
same,"Remain, autosampler for 24 h","[2]; rat plasma QC, autosampler 24 h, 2 ng/ml, n = 6",89.7%
same,"Remain, autosampler for 24 h","[2]; rat plasma QC, autosampler 24 h, 100 ng/ml, n = 6",98.4%
same,"Remain, autosampler for 24 h","[2]; rat plasma QC, autosampler 24 h, 500 ng/ml, n = 6",85.4%
same,"Remain, autosampler for 24 h",[2]; [11],87.5%
same,"Remain, freeze thaw cycles","[2]; rat plasma QC, freeze thaw cycles, 2 ng/ml, n = 6",92.5%
same,"Remain, freeze thaw cycles","[2]; rat plasma QC, freeze thaw cycles, 100 ng/ml, n = 6",92.0%
same,"Remain, freeze thaw cycles","[2]; rat plasma QC, freeze thaw cycles, 500 ng/ml, n = 6",85.3%
same,"Remain, freeze thaw cycles",[2]; [12],95.9%
same,"Remain, room temperature for 24 h","[2]; rat plasma QC, room temperature 24 h, 2 ng/ml, n = 6",96.5%
same,"Remain, room temperature for 24 h","[2]; rat plasma QC, room temperature 24 h, 100 ng/ml, n = 6",109%
same,"Remain, room temperature for 24 h","[2]; rat plasma QC, room temperature 24 h, 500 ng/ml, n = 6",89.3%
same,"Remain, room temperature for 24 h",[2]; [13],94.4%
same,"Remain, −80°C for 1 month","[2]; rat plasma QC, −80°C 1 month, 2 ng/ml, n = 6",96.3%
same,"Remain, −80°C for 1 month","[2]; rat plasma QC, −80°C 1 month, 100 ng/ml, n = 6",100%
same,"Remain, −80°C for 1 month","[2]; rat plasma QC, −80°C 1 month, 500 ng/ml, n = 6",91.4%
same,"Remain, −80°C for 1 month",[2]; [14],99.4%
same,"Remain, working solution",[3]; 2 ng/ml,92.5%
same,"Remain, working solution",[3]; 100 ng/ml,98.7%
same,"Remain, working solution",[3]; 500 ng/ml,108%
same,"Remain, working solution",[3]; [5],101%
